# Measurements as given in patent US20250205200A1, “5-METHOXY-N,N-[…][…] THE TREATMENT OF […]” (GH RESEARCH IRELAND LIMITED, priority 2022, published 2025).
# Tested on: patients with postpartum depression (PPD)
# Assay: Clinical trial of inhaled 5-MeO-DMT (individualized dosing regimen) in postpartum depression; one patient, 6 mg then 12 mg
# Details: n=1; for BPRS Blunted affect improvement / BPRS Blunted affect score / BPRS Conceptual disorganization improvement / BPRS Conceptual disorganization score / BPRS Disorientation improvement / BPRS Disorientation score / BPRS Grandiosity improvement / BPRS Grandiosity score / BPRS Hallucinatory behaviour improvement / BPRS Hallucinatory behaviour score / BPRS Hostility improvement / BPRS Hostility score / BPRS Mannerisms and Posturing improvement / BPRS Mannerisms and Posturing score / BPRS Motor retardation improvement / BPRS Motor retardation score / BPRS Suspiciousness improvement / BPRS Suspiciousness score / BPRS Uncooperativeness improvement / BPRS Uncooperativeness score / BPRS Unusual Thought Content improvement / BPRS Unusual Thought Content score: baseline 1; for BPRS Excitement improvement / BPRS Excitement score: baseline 2; for BPRS Anxiety improvement / BPRS Anxiety score: baseline 7
# Protocol: The single-arm, open-label clinical trial will involve 15 adult female patients with clinically diagnosed postpartum depression (PPD).
# The second dose (12 mg) will only be administered if: • a. […] The 6 mg dose was safe and well-tolerated according to the investigator, • c. Any psychoactive effects (PsE) of the prior dose have subsided, and • d. Pre-dose vital parameters and forced expiratory volume in one second (FEV1) are in normal range, or if outside of the normal range, are not clinically significant according to the investigator. • 3. Similarly, a third dose (18 mg) will only be administered if: • a. […] The 12 mg dose was safe and well-tolerated according to the investigator, and • c. Any PsE of the prior dose have subsided, and • d. Pre-dose vital parameters and forced expiratory volume in one second (FEV1) are in normal range, or if outside of the normal range, are not clinically significant according to the investigator.
# The patients will be assessed for a peak psychedelic experience (based on a patient-scored visual analogue scale, the PE scale), sedation, and other endpoints after dosing.
# Follow-up visits are planned for Day 1, and Day 7 after the dosing day.
# The following criteria must be met by all patients considered for clinical trial participation: • 1. Is female and in the age range between 18 and 45 years (inclusive) at screening. • 2. Has a body mass index (BMI) in the range of 18.5 and 35 kg/m^2 (inclusive) at screening. • 3. Meets the trial criteria for PPD as assessed by a trial psychiatrist or registered psychologist: • a. Diagnosis of Major Depressive Disorder without psychotic features, confirmed by the Mini-International Neuropsychiatric Interview (MINI), with peri-partum onset that began no earlier than gestation and no later than the first 4 weeks postpartum. • b. Has a Montgomery-Åsberg Depression Rating Scale (MADRS) total score of equal to or greater than 28 at screening and pre-dose on Day 0. • 6. […] Patients must have a negative pregnancy test at screening and on the pre-test day (Day −1). • 5. Is willing to delay start of other antidepressant or anxiety medication until after the end of the trial at Day 7 and agrees to keep any psychotherapy unchanged during the trial.
# A potential patient who meets any of the following key exclusion criteria will be excluded from participation in this trial: • 1. Has, based on history, psychiatric assessment, and evaluation of the MINI, a current or prior diagnosis of bipolar disorder, a manic or hypomanic episode, a psychotic disorder, Major Depressive Disorder (MDD) or other mood disorder with psychotic features, obsessive compulsive disorder, post-traumatic stress disorder (PTSD), autism spectrum disorder, borderline personality disorder, schizophrenia, delusional disorder, paranoid personality disorder, schizoaffective disorder, clinically significant intellectual disability, or any other psychiatric comorbidity that renders the patient unsuitable for the trial according to the investigator's judgment. • 2. Has one or more first or second degree relatives with a current or previously diagnosed bipolar disorder, psychotic disorder or other mood disorder (including MDD) with psychotic features. • 3. Is in the judgement of a trial psychiatrist or registered psychologist, at significant risk for suicide based on history, psychiatric assessment, and evaluation of suicidal ideation and suicidal behaviour based on the Columbia-Suicide Severity Rating Scale (C-SSRS). • 4. Has taken anti-depressive medication within 14 days or 5 half-lives (whichever is longer) prior to dosing (exception: within the last 5 weeks in the case of fluoxetine). • 5.
structure (smiles),measurement,setting,value
COc1ccc2[nH]cc(CCN(C)C)c2c1 [5-MeO-DMT],MADRS Suicidal Thoughts improvement,"Day 7, baseline 0",0
same,MADRS Suicidal Thoughts score,"Day 7, baseline 0",0
same,BPRS Blunted affect improvement,Day 7,0
same,BPRS Blunted affect score,Day 7,1
same,BPRS Conceptual disorganization improvement,Day 7,0
same,BPRS Conceptual disorganization score,Day 7,1
same,BPRS Disorientation improvement,Day 7,0
same,BPRS Disorientation score,Day 7,1
same,BPRS Grandiosity improvement,Day 7,0
same,BPRS Grandiosity score,Day 7,1
same,BPRS Hallucinatory behaviour improvement,Day 7,0
same,BPRS Hallucinatory behaviour score,Day 7,1
same,BPRS Hostility improvement,Day 7,0
same,BPRS Hostility score,Day 7,1
same,BPRS Mannerisms and Posturing improvement,Day 7,0
same,BPRS Mannerisms and Posturing score,Day 7,1
same,BPRS Motor retardation improvement,Day 7,0
same,BPRS Motor retardation score,Day 7,1
same,BPRS Suspiciousness improvement,Day 7,0
same,BPRS Suspiciousness score,Day 7,1
same,BPRS Uncooperativeness improvement,Day 7,0
same,BPRS Uncooperativeness score,Day 7,1
same,BPRS Unusual Thought Content improvement,Day 7,0
same,BPRS Unusual Thought Content score,Day 7,1
same,BPRS Excitement improvement,Day 7,1
same,BPRS Excitement score,Day 7,1
same,MADRS Inability to Feel improvement,"Day 7, baseline 3",3
same,MADRS Inability to Feel score,"Day 7, baseline 3",0
same,MADRS Lassitude improvement,"Day 7, baseline 3",3
same,MADRS Lassitude score,"Day 7, baseline 3",0
same,MADRS Pessimistic Thoughts improvement,"Day 7, baseline 4",4
same,MADRS Pessimistic Thoughts score,"Day 7, baseline 4",0
same,MADRS Reported sadness improvement,"Day 7, baseline 4",4
same,MADRS Reported sadness score,"Day 7, baseline 4",0
same,BPRS Emotional withdrawal improvement,"Day 7, baseline 5",4
same,BPRS Emotional withdrawal score,"Day 7, baseline 5",1
same,MADRS Apparent sadness improvement,"Day 7, baseline 5",5
same,MADRS Apparent sadness score,"Day 7, baseline 5",0
same,MADRS Inner Tension improvement,"Day 7, baseline 5",4
same,MADRS Inner Tension score,"Day 7, baseline 5",1
same,MADRS Reduced Sleep improvement,"Day 7, baseline 5",5
same,MADRS Reduced Sleep score,"Day 7, baseline 5",0
same,BPRS Depressive Mood improvement,"Day 7, baseline 6",5
same,BPRS Depressive Mood score,"Day 7, baseline 6",1
same,BPRS Guilt feelings improvement,"Day 7, baseline 6",5
same,BPRS Guilt feelings score,"Day 7, baseline 6",1
same,BPRS Somatic Concern improvement,"Day 7, baseline 6",5
same,BPRS Somatic Concern score,"Day 7, baseline 6",1
same,BPRS Tension improvement,"Day 7, baseline 6",5
same,BPRS Tension score,"Day 7, baseline 6",1
same,BPRS Anxiety improvement,Day 7,6
same,BPRS Anxiety score,Day 7,1
same,BIMF functional domain Adjustment % improvement,Day 7 vs Day 0,20.00%
same,BIMF functional domain Adjustment Δ,Day 7 vs Day 0,1
same,BIMF functional domain Infant Care % improvement,Day 7 vs Day 0,0.00%
same,BIMF functional domain Infant Care Δ,Day 7 vs Day 0,0
same,BIMF functional domain Management % improvement,Day 7 vs Day 0,18%
same,BIMF functional domain Management Δ,Day 7 vs Day 0,5
same,BIMF functional domain Mother-Child Interaction Δ,Day 7 vs Day 0,2
same,BIMF functional domain Psychological Well-being Δ,Day 7 vs Day 0,9
same,BIMF functional domain Self-Care % improvement,Day 7 vs Day 0,44%
same,BIMF functional domain Self-Care Δ,Day 7 vs Day 0,4
same,BIMF functional domain Social Support Δ,Day 7 vs Day 0,1
same,BIMF item 10 (I trust my own feelings (instincts) when taking care of my baby) Δ,Day 7 vs Day 0,1
same,BIMF item 11 (I take a little time each week to do something for myself) Δ,Day 7 vs Day 0,1
same,BIMF item 16 (I worry about how other people judge me (as a mother)) Δ,Day 7 vs Day 0,2
same,BIMF total score percentage improvement,Day 7 vs Day 0 (92 to 105),14%
same,BPRS Blunted affect improvement,Discharge,0
same,BPRS Blunted affect score,Discharge,1
same,BPRS Conceptual disorganization improvement,Discharge,0
same,BPRS Conceptual disorganization score,Discharge,1
same,BPRS Disorientation improvement,Discharge,0
same,BPRS Disorientation score,Discharge,1
same,BPRS Grandiosity improvement,Discharge,0
same,BPRS Grandiosity score,Discharge,1
same,BPRS Hallucinatory behaviour improvement,Discharge,0
same,BPRS Hallucinatory behaviour score,Discharge,1
same,BPRS Hostility improvement,Discharge,0
same,BPRS Hostility score,Discharge,1
same,BPRS Mannerisms and Posturing improvement,Discharge,0
same,BPRS Mannerisms and Posturing score,Discharge,1
same,BPRS Motor retardation improvement,Discharge,0
same,BPRS Motor retardation score,Discharge,1
same,BPRS Suspiciousness improvement,Discharge,0
same,BPRS Suspiciousness score,Discharge,1
same,BPRS Uncooperativeness improvement,Discharge,0
same,BPRS Uncooperativeness score,Discharge,1
same,BPRS Unusual Thought Content improvement,Discharge,0
same,BPRS Unusual Thought Content score,Discharge,1
same,BPRS Excitement improvement,Discharge,1
same,BPRS Excitement score,Discharge,1
same,BPRS Emotional withdrawal improvement,"Discharge, baseline 5",4
same,BPRS Emotional withdrawal score,"Discharge, baseline 5",1
same,BPRS Depressive Mood improvement,"Discharge, baseline 6",5
same,BPRS Depressive Mood score,"Discharge, baseline 6",1
same,BPRS Guilt feelings improvement,"Discharge, baseline 6",5
same,BPRS Guilt feelings score,"Discharge, baseline 6",1
same,BPRS Somatic Concern improvement,"Discharge, baseline 6",5
same,BPRS Somatic Concern score,"Discharge, baseline 6",1
same,BPRS Tension score,"Discharge, baseline 6",1
same,BPRS Anxiety improvement,Discharge,6
same,BPRS Anxiety score,Discharge,1
same,Changes in vital parameters,shortly after administration,"temporary, clinically non-relevant increase in heart rate and blood pressure"
